Like-named read-outs stand apart in the source and are kept apart here.
Columns and labels:
L. major amastigotes = L. major amastigotes within J774 cells, parasite survival; type: cell-based; details: for MIC50: Leishmania major
Protocol: To distinguish between leishmaniostatic and leishmanicidal effects, a time course survival curve was generated for J774 cultures infected with L. major.
Amastigotes were generated by infecting J774 murine macrophages. Infections were carried after seeding cells in 8-well Labtek chambers (Thermo Physic Scientific, Rochester N.Y.) at a concentration of 5×10^4 cells/well. To avoid multiplication, cells were incubated with mitomycin C at a concentration of 0.8 μg/ml for 16 h. Infective-stage promastigotes (metacyclics) of L. major were isolated from stationary cultures (4-5 day-old) by Ficoll enrichment, added to macrophage cultures (5 promastigotes: 1 cell) and kept overnight at 37° C. in the presence of 5% CO2 and DMEM with 10% FCS. Sixteen hours later, non-internalized promastigotes were then washed and replaced by culture medium containing the drug. Forty-eight hours later, wells were detached from the slides, stained with Diff-Quick (Dade Behring, Newark, Del.) and counted under light microscope. Parasite burden was determined by observation under light microscopy (1000×) as the number of amastigotes per one hundred J774 cells. Percentage of survival of amastigotes and MIC50 were calculated as above.

J774 cells = experiment: Cytokine (ELISA) and nitric oxide (Griess test) production in J774 cells; type: cell-based, murine; details: for production of cytokines (IL-12, TNF-α) and NO release: J774 cells, irrespective of infection (FIG. 14)
Protocol: The ability of J774 cells to produce cytokines in response to infection and/or treatment was also determined. Cells were infected, treated or activated as described above. The amount of the proinflammatory cytokines IL-12 and TNF-α (implicated in Thl response and parasite killing), as well as the repressive cytokine IL-10, was determined by ELISA in the culture supernatants. The level of nitric oxide was also determined in the same supernatants. PZA treatment alone increased cytokine production, especially IL-12 and TNF-α and NO release. […] Finally, to test the specificity of the immune activation by PZA, we determined the effect that amphotericin B treatment had on activation and cytokine expression by J774 cells.
(§1) J774 cells or bone marrow-derived cells were seeded onto 24-well plates at a concentration of 5×10^5 cells/ml. Twenty-four hours later, PZA was added to the wells at different concentrations in the absence or presence of L. major (1:5 parasite ratio). In some experiments, J774 cells were treated with amphotericin B (0.1, 0.5, or 1 μg/ml). Two control groups were also included in this experiment: a positive control of activation consisting in a group of uninfected cells treated with 100 ng/ml LPS and 10 IU IFN-γ as a positive control of activation, and a negative control of activation, consisting in uninfected, untreated cells. Cell cultures were maintained overnight, and then cultured for an additional 6 h with brefeldin A (10 μg/ml), harvested by scraping and fixed in 2% paraformaldehyde. Prior to staining, cells were incubated with an anti-Fc III/II receptor and 10% normal mouse serum (NMS) in PBS containing 0.1% BSA, 0.01% NaN3. Cells were permeabilized with saponin and stained for the surface markers CD80 (clone 16-10A1), CD86 (clone GL1), MHCI (clone 28-14-8), MHCII (clone M5/114.15.2) and for the cytokines IL-12p40/p70 (clone C17.8) and IL-10 (clone JESS-16E3). Incubations were carried out for 30 min on ice. All antibodies were purchased from BD Biosciences or eBioscience. For each sample, at least 50,000 cells were analyzed. The data were collected and analyzed using CELLQuest software and a FACScalibur flow cytometer (Becton Dickinson, San Jose, Calif.).

[1] = test system: bone marrow-derived macrophages; experiment: Cytokine and NO production in bone marrow-derived macrophages; type: cell-based, C57BL/6 mice; design: unit not given here; details: macrophage, drug 100 μM
Protocol: (§2) Bone marrow cells were obtained and were grown in the presence of the cytokines M-CSF or GM-CSF to induce differentiation of macrophages or dendritic cells, respectively. The study of the immune response of dendritic cells was included because of their importance for the initiation of the immune response against L. major. […] Again, this effect was rescued by the treatment of macrophages with compounds of formula I, namely, either PZA or 5-Cl PZA.
(§3) Parasite and cell culture. L. major clone V1 (MHOM/IL/80/Friedlin) promastigotes were grown at 26° C. in medium 199 supplemented with 20% heat-inactivated fetal calf serum (FCS, Gemini, Sacramento), 100 U/ml penicillin, 100 μg/ml streptomycin, 2 mM L-glutamine, 40 mM Hepes, 0.1 mM adenine (in 50 mM Hepes) and […] hemin (in 50% triethanolamine). The macrophage murine cell line J774 (Cat. No. TIB-67TM) was cultured in DMEM (Sigma-Aldrich, St. Louis, Mo.) with 10% FCS, 100 U/ml penicillin, 100 μg/ml streptomycin and 2 mM glutamine (Sigma-Aldrich) at 37° C. under 5% CO2 atmosphere. Culture medium was changed twice per week. Subcultures were performed when monolayers covered 90% of the bottom of culture flasks. For experiments involving macrophages and dendritic cells, bone marrow was obtained from C57BL/6 mouse femurs and grown for 6-8 days in RPMI 1640 supplemented as above in the presence of 10% L929 conditioned medium (to generate macrophages) or 20 ng/ml GM-CSF (to generate dendritic cells).
as §1

[2] = test system: bone marrow-derived dendritic cells; experiment: Cytokine and NO production in bone marrow-derived dendritic cells; type: cell-based, C57BL/6 mice; design: unit not given here; details: dendritic cell, drug 100 μM
Protocol: as §2, §3, §1

[3] = test system: bone marrow-derived macrophages; experiment: Cytokine and NO production in bone marrow-derived macrophages; type: cell-based, C57BL/6 mice; design: unit not given here; details: macrophage, drug 100 μM; remark: listed apart in the source
[4] = L. major-infected J774, PZA 10 μM
[5] = L. major-infected J774, PZA 100 μM

NC(=O)c1cnccn1 [PZA, pyrazinamide]
increase in MIC50 of amastigotes versus promastigotes (L. major amastigotes; 48 hours post infection): 10 fold | MIC50 (L. major amastigotes; 48 h, amastigote in J774, 48 h, read-out: MIC50): 10.2 µg/mL | MIC50 (L. major amastigotes; L. major amastigotes within J774 cells (Table Ia), read-out: MIC50 for PZA analogs): 9.5 µM | percentage of survival compared to untreated control (L. major amastigotes; amastigote in J774, PZA 1 μg/ml, 48 h): 89 ± 12% | percentage of survival compared to untreated control (L. major amastigotes; amastigote in J774, PZA 12.5 μg/ml, 48 h): 47 ± 12% | percentage of survival compared to untreated control (L. major amastigotes; amastigote in J774, PZA 100 μg/ml, 48 h): 23 ± 10% | percentage of survival compared to untreated control (L. major amastigotes; amastigote in J774, PZA 1000 μg/ml, 48 h): 20 ± 15% | production of cytokines (IL-12, TNF-α) and NO release (J774 cells): increased | IL-10 production (J774 cells; [4]): 109 ± 39 pg/mL | IL-12 production (J774 cells; [4]): 253 ± 68 pg/mL | Nitric Oxide production (J774 cells; [4]): 289 ± 55 pg/mL | TNF-α production (J774 cells; [4]): 259 ± 163 pg/mL | IL-10 production (J774 cells; [5]): 112 ± 44 pg/mL | IL-12 production (J774 cells; [5]): 299 ± 55 pg/mL | Nitric Oxide production (J774 cells; [5]): 498 ± 74 pg/mL | TNF-α production (J774 cells; [5]): 489 ± 154 pg/mL | IL-10 production (J774 cells; uninfected J774, PZA 10 μM): 112 ± 45 pg/mL | IL-12 production (J774 cells; uninfected J774, PZA 10 μM): 178 ± 38 pg/mL | Nitric Oxide production (J774 cells; uninfected J774, PZA 10 μM): 254 ± 44 pg/mL | TNF-α production (J774 cells; uninfected J774, PZA 10 μM): 245 ± 159 pg/mL | IL-10 production (J774 cells; uninfected J774, PZA 100 μM): 145 ± 56 pg/mL | IL-12 production (J774 cells; uninfected J774, PZA 100 μM): 359 ± 65 pg/mL | Nitric Oxide production (J774 cells; uninfected J774, PZA 100 μM): 476 ± 52 pg/mL | TNF-α production (J774 cells; uninfected J774, PZA 100 μM): 377 ± 105 pg/mL | IL-10 production ([1]; infected with L. major (Lm)): 199 ± 120 | IL-12 production ([1]; infected with L. major (Lm)): 921 ± 445 | IL-10 production ([1]; uninfected): 155 ± 21 | IL-12 production ([1]; uninfected): 867 ± 546 | IL-10 production ([2]; infected with L. major (Lm)): 203 ± 60 | IL-12 production ([2]; infected with L. major (Lm)): 1035 ± 785 | IL-10 production ([2]; uninfected): 185 ± 63 | IL-12 production ([2]; uninfected): 956 ± 145 | NO production ([3]; infected with L. major (Lm)): 699 ± 112 | TNF-α production ([3]; infected with L. major (Lm)): 921 ± 345 | NO production ([3]; uninfected): 543 ± 221 | TNF-α production ([3]; uninfected): 758 ± 246

NC(=O)c1cnc(Cl)cn1 [5-Cl PZA, 5-chloro pyrazinamide]
MIC50 reduced relative to PZA (L. major amastigotes; L. major amastigotes within J774 cells): 5 fold | MIC50 for PZA analogs (L. major amastigotes; L. major amastigotes within J774 cells (Table Ia)): 2.1 μM | proinflammatory cytokines stimulated relative to PZA (J774 cells; IL-2 production (FIG. 9B), also in Leishmania-infected macrophages): 2 × | production of cytokines (IL-12, TNF-α) and NO release (J774 cells): increased | IL-10 production ([1]; infected with L. major (Lm)): 499 ± 312 | IL-12 production ([1]; infected with L. major (Lm)): 1821 ± 645 | IL-10 production ([1]; uninfected): 415 ± 210 | IL-12 production ([1]; uninfected): 1767 ± 526 | IL-10 production ([2]; infected with L. major (Lm)): 342 ± 398 | IL-12 production ([2]; infected with L. major (Lm)): 2121 ± 945 | IL-10 production ([2]; uninfected): 265 ± 213 | IL-12 production ([2]; uninfected): 1962 ± 765 | NO production ([3]; infected with L. major (Lm)): 1599 ± 812 | TNF-α production ([3]; infected with L. major (Lm)): 1928 ± 444 | NO production ([3]; uninfected): 1145 ± 721 | TNF-α production ([3]; uninfected): 1598 ± 542
